Article PMC11063955, “A multiplexed time-resolved fluorescence resonance energy transfer ultrahigh-throughput screening assay for targeting the SMAD4–SMAD3–DNA complex” (Journal of Molecular Cell Biology, 2023)
Like-named read-outs stand apart in the source and are kept apart here.

Tests used:
[1] = target: T1, full-length SMAD4–SMAD3 PPI (Homo sapiens, UniProt P84022+Q13485); assay: GST pull-down assay, full-length SMAD4–SMAD3; type: binding
T1 construct: expressed in transfected cells; host or cells: HEK293T (lysate)
Method: (§1) To validate the hits from the pilot screening, we performed the orthogonal GST pull-down assay using cell lysates from HEK293T cells transfected with Venus-flag-SMAD3 and GST-SMAD4 or Venus-flag-SMAD3-MH2 and GST-SMAD4-MH2. After 48 h of transfection, the cells were lysed in 1% NP-40 lysis buffer, incubated with compounds for 16 h with rotation at 4°C, and then incubated with glutathione-conjugated beads (GE 17527901) for 2 h at 4°C. Beads were washed twice with 1% NP-40 lysis buffer, eluted by boiling in sodium dodecyl sulfate (SDS) sample buffer (Bio-Rad), and subjected to western blot analysis. Proteins in SDS sample buffer were resolved by 10% SDS polyacrylamide gel electrophoresis and transferred to nitrocellulose filter membranes at 100 V for 2 h at 4°C. After blocking in 5% nonfat dry milk in TBST (20 mM Tris-base, 150 mM NaCl, and 0.05% Tween 20) for 1 h at room temperature, the membranes were blotted with the indicated antibodies, mouse monoclonal anti-FLAG-HRP antibody (Sigma‒Aldrich, # A8592) and rabbit polyclonal anti-GST-HRP antibody (Sigma‒Aldrich, Cat# A7340), at 4°C overnight. The membranes were washed three times with 1× TBST for 15 min. […] Luminescence images were captured using the ChemiDoc^TM Touch Imaging System (Bio-Rad).

[2] = test system: TGFβ-induced migration of A549 cells; assay: Wound-healing assay; type: cell-based; conditions: 5 μM compound, TGFβ 10 ng/ml, A549 NucLight Red
Method: Briefly, A549 NucLight Red cells were seeded in 96-well plates (Greiner, Cat# 655087) at 40000 cells/well in RPMI 1640 media supplemented with 10% FBS and 1% antibiotics. After 24 h, a wound scratch was created in the confluent cell monolayer using a 96-well woundmaker (Sartorius), followed by washing three times with PBS. Then, the medium was replaced with RPMI 1640 medium without FBS. TGFβ (10 ng/ml), GA (5 μM), or GNA (5 μM) was added at the indicated concentrations. After 24 h of treatment, the plates were imaged using the ImageXpress Micro High-Content Imaging System (Molecular Device). The wound-healing activity was quantified by measuring the width (W) of the wound using ImageJ and expressed as […] × 100.

SMAD4–SMAD3 PPI = target: T2, SMAD4–SMAD3 PPI (Homo sapiens, UniProt P84022+Q13485); assay: Multiplexed TR-FRET assay, Tb–D2 PPI readout (cell lysate-based); type: binding; conditions: for inhibition of PPI signal compared to DMSO control, primary screen: 1536-well uHTS, 20 μM, single point
T2 construct: expressed in transfected cells; host or cells: HEK293T (transient co-transfection, lysate used)

[3] = target: T3, SMAD–SBE4 PDI (SMAD4–SMAD3–DNA complex) (Homo sapiens, UniProt P84022+Q13485); assay: Multiplexed TR-FRET assay, Tb–FAM PDI readout (cell lysate-based); type: binding; conditions: for inhibition of PDI signal compared to DMSO control, primary screen: 1536-well uHTS, 20 μM, single point
T3 construct: expressed in transfected cells; host or cells: HEK293T (transient co-transfection, lysate used)

[4] = target: T4, SMAD4–SMAD3 MH2 domain PPI (Homo sapiens, UniProt P84022+Q13485); assay: GST pull-down assay, SMAD4–SMAD3 MH2 domains; type: binding
T4 construct: GST-SMAD4-MH2 and VF-SMAD3-MH2 (C and D); expressed in transfected cells; host or cells: HEK293T (lysate)
Method: as §1

[5] = test system: TGFβ-induced SBE4-luc reporter activity in HEK293T cells; assay: SBE luciferase reporter assay; type: cell-based, Human; conditions: 5 μM compound, TGFβ 10 ng/ml, 18 h
Method: SMAD3/SMAD4 complex transcriptional activity was measured using the SBE-luciferase reporter system. HEK293T cells were used to measure the luciferase activity. Cells were plated in 6-well plates and co-transfected with SBE4-Luc plasmid (1 μg, Addgene, 16495) and pDEST26-Renilla plasmid (0.1 μg) using FuGENE® HD (Promega, #E2312). After 24 h of transfection, the cells were pre-treated with GA (MedChemExpress, #HY-N0087) or GNA (MedChemExpress, #HY-5024) at 5 μM for 6 h followed by TGFβ (10 ng/ml, R&D Systems, #240-B) stimulation for an additional 18 h. Renilla and firefly luciferase activities were measured by an Envision Multilabel plate reader (PerkinElmer) using a Dual-Glo luciferase kit (Promega, Cat# E2920) according to the manufacturer's instructions. The normalized luminescence was calculated as the ratio of the luminescence of firefly luciferase over the luminescence of Renilla luciferase.

T2 sequence (Q13485 whole entry): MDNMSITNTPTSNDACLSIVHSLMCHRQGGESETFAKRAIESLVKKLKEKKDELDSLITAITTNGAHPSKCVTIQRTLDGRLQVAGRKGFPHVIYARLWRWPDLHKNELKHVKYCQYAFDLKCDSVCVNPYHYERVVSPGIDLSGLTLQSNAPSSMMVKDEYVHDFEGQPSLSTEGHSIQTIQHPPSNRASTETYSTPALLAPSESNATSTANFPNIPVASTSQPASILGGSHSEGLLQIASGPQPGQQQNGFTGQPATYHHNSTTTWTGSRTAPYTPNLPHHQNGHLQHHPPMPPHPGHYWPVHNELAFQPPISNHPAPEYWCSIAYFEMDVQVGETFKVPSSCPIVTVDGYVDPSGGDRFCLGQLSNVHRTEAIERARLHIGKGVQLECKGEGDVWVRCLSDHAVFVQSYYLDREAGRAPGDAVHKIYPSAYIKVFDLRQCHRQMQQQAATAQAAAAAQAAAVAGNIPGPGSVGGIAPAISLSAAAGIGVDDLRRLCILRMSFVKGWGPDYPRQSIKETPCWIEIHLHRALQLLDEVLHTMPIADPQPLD
T2 sequence (P84022 whole entry): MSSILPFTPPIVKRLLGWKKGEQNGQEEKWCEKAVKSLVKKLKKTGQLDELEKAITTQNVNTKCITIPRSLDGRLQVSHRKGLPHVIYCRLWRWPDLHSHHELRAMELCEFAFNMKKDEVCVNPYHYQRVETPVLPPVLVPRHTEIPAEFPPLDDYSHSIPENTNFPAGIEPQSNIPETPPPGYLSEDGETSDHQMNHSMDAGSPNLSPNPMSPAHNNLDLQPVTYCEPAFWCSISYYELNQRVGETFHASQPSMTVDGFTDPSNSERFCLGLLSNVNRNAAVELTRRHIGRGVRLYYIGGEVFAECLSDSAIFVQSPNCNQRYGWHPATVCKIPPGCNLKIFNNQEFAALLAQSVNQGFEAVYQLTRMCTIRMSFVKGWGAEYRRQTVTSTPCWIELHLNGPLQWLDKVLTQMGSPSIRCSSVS
T3 sequence (Q13485 whole entry): as the sequence (Q13485 whole entry) above
T3 sequence (P84022 whole entry): as the sequence (P84022 whole entry) above
T4 sequence (Q13485 323-552): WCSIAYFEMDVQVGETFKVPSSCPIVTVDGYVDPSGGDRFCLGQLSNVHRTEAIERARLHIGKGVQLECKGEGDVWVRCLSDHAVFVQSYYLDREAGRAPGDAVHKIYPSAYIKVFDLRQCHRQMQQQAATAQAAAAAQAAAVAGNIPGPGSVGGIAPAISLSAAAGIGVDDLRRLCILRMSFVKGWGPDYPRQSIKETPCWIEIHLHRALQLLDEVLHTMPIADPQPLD
T4 sequence (P84022 232-425): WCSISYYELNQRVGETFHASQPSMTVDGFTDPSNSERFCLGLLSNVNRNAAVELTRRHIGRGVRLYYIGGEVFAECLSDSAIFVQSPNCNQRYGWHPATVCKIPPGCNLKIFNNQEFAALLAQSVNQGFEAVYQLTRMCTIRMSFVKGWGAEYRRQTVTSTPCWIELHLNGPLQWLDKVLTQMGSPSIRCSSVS
T1 sequence (Q13485 whole entry): as the sequence (Q13485 whole entry) above
T1 sequence (P84022 whole entry): as the sequence (P84022 whole entry) above

## CC(C)=CCC[C@]1(C)C=Cc2c(O)c3c(c(CC=C(C)C)c2O1)O[C@]12C(=C[C@@H]4C[C@H]1C(C)(C)O[C@@]2(C/C=C(/C)C(=O)O)C4=O)C3=O [GA, gambogic acid]
[1]; GST-SMAD4 and VF-SMAD3 lysates, densitometry of western blots, read-out: IC50, decrease of SMAD3 protein in the pull-down GST-SMAD4 complex
  IC50: ~11.4 µM
[2]
  TGFβ-induced A549 cell migration (wound healing): significantly reduced
SMAD4–SMAD3 PPI
  inhibition of PPI signal compared to DMSO control, primary screen: robust inhibitory effects
SMAD4–SMAD3 PPI; TR-FRET dose–response confirmation with re-ordered compounds, lysate co-expressing His-SMAD4 and Flag-SMAD3, read-out: IC50, decrease in the PPI signal
  IC50: 4.3 ± 0.5 µM
[3]
  inhibition of PDI signal compared to DMSO control, primary screen: robust inhibitory effects
[3]; TR-FRET dose–response confirmation with re-ordered compounds, 5′-FAM-SBE4 dsDNA, read-out: IC50, decrease in the PDI signal
  IC50: 36 ± 9.4 µM
[4]; GST-SMAD4-MH2 and VF-SMAD3-MH2 lysates, densitometry of western blots, read-out: IC50, inhibition of the PPI of SMAD4–SMAD3 MH2 domains
  IC50: ~11.4 µM
[5]
  TGFβ-induced SBE4-luc activity: significant reduction

## CC(C)=CCC/C(C)=C/Cc1c(O)c(CC=C(C)C)c2c(c1O)C(=O)C1=C[C@@H]3C[C@H]4C(C)(C)O[C@@](C/C=C(/C)C(=O)O)(C3=O)[C@@]14O2 [GNA, gambogenic acid]
[1]
  IC50: ~8.9 µM
[2]
  TGFβ-induced A549 cell migration (wound healing): significantly reduced
SMAD4–SMAD3 PPI
  IC50: 6.4 ± 1.6 µM
  inhibition of PPI signal compared to DMSO control, primary screen: robust inhibitory effects
[3]
  IC50: 27.6 ± 4.8 µM
  inhibition of PDI signal compared to DMSO control, primary screen: robust inhibitory effects
[4]
  IC50: ~9 µM
[5]
  TGFβ-induced SBE4-luc activity: significant reduction
